Assay results taken from patent US20230091336A1, “CANNABINOID COMPOSITIONS” (priority 2020, published 2023).
“Also recorded” adds a separate entry of the source. Marks after values point to notes of the source that are not given here.

Tests used:
UUO mice = assay: Unilateral Ureteral Obstruction (UUO) mouse model of kidney fibrosis; type: in vivo; settings: for interstitial area increase in UUO kidneys: FIG. 19D; for macrophage infiltration in UUO kidneys (F4/80): FIG. 20B; for α-SMA production in UUO kidneys vs vehicle (immunostaining): FIG. 24B; for urine / water intake / body weight / kidney weight CLK / kidney weight UUO: UUO mice at day 7; for urine / water intake / kidney weight CLK / kidney weight UUO: 10 mg/kg i.p. daily; for body weight: 10 mg/kg i.p. daily day 0 to day 6, n = 5; for magnesium output in urine vs vehicle: 24 h urine, FIG. 18; for kidney weight CLK: contralateral kidney; for phosphorylated Smad3 protein in UUO kidneys (Western blotting) / α-SMA protein in UUO kidneys (Western blotting): cortical kidney tissue, FIG. 23; for collagen type I production in UUO kidneys vs vehicle / fibronectin production in UUO kidneys vs vehicle: immunostaining; for collagen type I production in UUO kidneys vs vehicle: FIG. 21B; for fibronectin production in UUO kidneys vs vehicle: FIG. 22B; for tubular dilation in UUO kidneys: number of dilated tubules per field, FIG. 19B; for kidney weight UUO: obstructed kidney; for tubule loss in UUO kidneys: total number of renal tubules per field, FIG. 19C
Text: The Unilateral Ureteral Obstruction (UUO) model is a mouse model of kidney disease that is associated with and characterized by progressive tubulointerstitial injury and fibrosis. This model can be used to identify many of the molecular and cellular events that occur in progressive kidney fibrosis. […] TRPM7 represents a promising therapeutic target in kidney fibrosis and TRPM7 inhibitors may act as anti-fibrotic pharmacological tools.
C57BL/6 male mice (6 wks weighing 20-25 g) were used in the UUO model. Under isoflurane (3.0% for induction and 1.5% for maintenance) anesthesia, ureteral obstruction was achieved by ligating the left ureter with a 3-0 silk suture through a left lateral incision. Control and experimental groups for these experiments were created as follows:
Group 1: Control (5 mL/kg body weight) 5% ethanol and 5% Tween80 in 0.9% NaCl
Group 2: CBGA (10 mg/kg body weight) 2 mg/mL in 5% ethanol, 5% Tween80 and 0.9% NaCl
Group 3: CBD (10 mg/kg body weight) 2 mg/mL in 5% ethanol, 5% Tween80 and 0.9% NaCl
Group 4: CBGA (10 mg/kg body weight)+CBD (10 mg/kg body weight), 2 mg/mL each in 5% ethanol, 5% Tween80 and 0.9% NaCl
Mice were injected once daily with 10 mg/kg cannabinoids (CBGA, CBD, or both) as well as vehicle control daily beginning immediately after surgery and until Day 6. Mice were euthanized at Day 7 after surgery. Obstructed kidneys (UUO) and non-obstructed contralateral kidneys (CLK) were collected and stored.
FIGS. 19A-19D depict the protection of kidney structure following cannabinoid treatment, as observed during experiments.
Immunohistochemical analysis. To evaluate renal fibrosis in UUO kidneys, immunoreactivities of F4/80 (macrophage marker), collagen type I, fibronectin, and α-smooth muscle actin (α-SMA) were determined using a standard biotin-streptavidin-peroxidase method. The staining-positive areas were calculated by Image J. The threshold was set to automatically compute the positive areas for each staining and the ratio of the positive areas to the whole interstitial area. Number of macrophages (FIG. 20A and FIG. 20B), collagen type I production in stained kidney tissue (FIG. 21A and FIG. 21B), and fibronectin production in stained kidney tissue (FIG. 22A and FIG. 22B) were quantified in UUO kidneys, showing that extracellular matrix production and/or deposition in kidney tissue were also affected with CBGA treatment.

[1] = system: cisplatin-induced nephritis mice; assay: Cisplatin-induced kidney damage mouse model; type: in vivo; settings: for body-weight loss in cisplatin-induced nephritis mice / kidney weight left / kidney weight right / urine / water intake / body weight: 10 mg/kg i.p.; for body-weight loss in cisplatin-induced nephritis mice: FIG. 25; for creatinine and BUN levels, treatment group vs vehicle group: cisplatin model, first statement of b267; for kidney weight left / kidney weight right / urine / water intake / body weight: cisplatin-induced mice at day 3; for body weight: cisplatin 16 mg/kg, n = 4-5; for kidney weight normalized to body weight / magnesium regulation (serum and urine magnesium) vs cisplatin vehicle group: day 3; for kidney weight normalized to body weight: FIG. 26; for magnesium regulation (serum and urine magnesium) vs cisplatin vehicle group: FIGS. 27A-27B; for kidney function as determined by blood urea nitrogen (BUN): day 3 serum, FIG. 28; for amount of PARP-1 protein in kidney (Western blot): vs cis(+) vehicle, FIG. 30B
Experimental: CBGA and/or CBD was injected intraperitoneally (i.p) 2 hours into C57BL/6 male mice (8 wks weighing 23-30 g) before cisplatin injection according to dosage schemes outlined below, and cisplatin-induced kidney damage was compared to normal kidneys. Sham treatment without cisplatin cis(−) was used as a negative control and cisplatin injection cis(+) without cannabinoid extract treatment was used as a positive vehicle control. Mice in group 1 (“vehicle”) received treatment with cisplatin (16 mg/kg body weight, lmg/mL in 0.90% NaCl, i.p) following intraperitoneal injection of vehicle control solution (5 mL/kg body weight) comprising 5% ethanol and 5% Tween80 in 0.9% NaCl. Mice in group 2 (“CBGA”) received treatment with cisplatin (16 mg/kg body weight, 1 mg/mL in 0.9% NaCl, i.p) following injection of CBGA (10 mg/kg body weight) 2 mg/mL in 5% ethanol, 5% Tween80 and 0.9% NaCl Mice in group 3 (“CBD”) received treatment with cisplatin (16 mg/kg body weight, 1 mg/mL in 0.9% NaCl, i.p) following intraperitoneal injection of CBD (10 mg/kg body weight) 2 mg/mL in 5% ethanol, 5% Tween80 and 0.9% NaCl. Mice in group 4 (“CBGA+CBD”) received treatment with cisplatin (16 mg/kg body weight, 1 mg/mL in 0.9% NaCl, i.p) following intraperitoneal injection of CBGA (10 mg/kg body weight)+CBD (10 mg/kg body weight) 2 mg/mL each in 5% ethanol, 5% Tween80 and 0.9% NaCl. Mice in group 5 (“cis(−)”) received sham injections comprising 0.9% NaCl (16 mL/kg body weight) following intraperitoneal injection of vehicle control solution (5 mL/kg body weight) 5% ethanol, 5% Tween80 and 0.9% NaCl.
Mice were euthanized at Day 3 following cisplatin injection, and kidneys were harvested and stored for processing and analysis.
Blood and urine were collected and analyzed to check kidney function. Blood was collected following euthanization, and urine was collected for 24 hrs before euthanasia in metabolic cages. […] Creatinine levels and BUN or urea value were measured from blood serum and urine samples to evaluate the kidney function. […] FIG. 29A-29B show measured creatinine levels in cisplatin-induced nephrotic mice at day 3. Urine was collected using a metabolic cage for 24 hours before sacrifice. Creatinine was assessed by an assay kit (n=4-5). Creatinine concentration in serum (FIG. 29A) and creatinine in urine (FIG. 29B) were maintained in cannabinoid-treated mice. *p<0.05 vs. cis(+) vehicle treatment group.
PARP-1 in cisplatin- and cannabinoid-treated kidney samples was evaluated by Western blot quantification. PARP activity increases to repair DNA damage, while it induces apoptosis when the cells have severe damage and can not be repaired in cisplatin-induced inflammatory kidneys. […] (FIG. 30A) PARP-1 in kidney tissue was evaluated by quantification of Western blot results, wherein α-tubulin was used as an internal control to normalize PARP-1 band quantification. […] PARP-1 was reduced in mice treated with cisplatin and cannabinoids, relative to mice treated with cisplatin and “vehicle” solution (FIG. 30B). Densitometric analysis was performed from the result of western blotting and presented as a bar graph (n=4-5). […] The rightmost bar represents the sham treatment (“cis(−)”), wherein mice received vehicle injections instead of both cisplatin and cannabinoid extracts as a negative control. **p<0.01 vs. cis(+) vehicle treatment group. CBGA reduced the amount of PARP-1 protein detected in cisplatin-induced nephritis mice. […]

[2] = system: SOCE in Luva human mast cells; assay: SOCE Fura-2 bioassay in Luva cells; settings: Homo sapiens, Mast cell, read-out: IC50 SOCE, purified cannabinoids, Luva; Table 5
Experimental: Briefly, SOCE inhibition experiments were performed as described in Example 8, using each of the hemp extracts listed below and in Tables 6A and 6B at six concentrations each in each of the five cell types listed above to obtain dose response curves, as shown in FIGS. 11A-11SS. […] All data are averages of three independent runs±SEM. […] Hemp extracts used in FIGS. 11A-11SS are: Sour Space Candy (SSC), Hawaiian Haze (HH), Special Sauce (SS), Suver Haze (SH), White CBG (WCBG), Elektra (ELEK), Cherry Wine (CW), Lifter (LIF), Grape Soda (GS).

Row | SMILES | interstitial area increase in UUO kidneys (UUO mice) | macrophage infiltration in UUO kidneys (F4/80) (UUO mice) | α-SMA production in UUO kidneys vs vehicle (immunostaining) (UUO mice) | urine (UUO mice) [mL] | water intake (UUO mice) [mL] | body weight (UUO mice) [g] | magnesium output in urine vs vehicle (UUO mice; UUO mice day 7) | kidney weight CLK (UUO mice) [mg] | phosphorylated Smad3 protein in UUO kidneys (Western blotting) (UUO mice) | α-SMA protein in UUO kidneys (Western blotting) (UUO mice) | collagen type I production in UUO kidneys vs vehicle (UUO mice) | fibronectin production in UUO kidneys vs vehicle (UUO mice) | tubular dilation in UUO kidneys (UUO mice) | kidney weight UUO (UUO mice) | tubule loss in UUO kidneys (UUO mice) | body-weight loss in cisplatin-induced nephritis mice [1] | creatinine and BUN levels, treatment group vs vehicle group [1] | kidney weight left [1] | kidney weight right [1] [mg] | urine [1] [mL] | other results
1 | CCCCCc1cc(O)c(C/C=C(\C)CCC=C(C)C)c(O)c1C(=O)O [CBGA, (E)-3-(3,7-dimethylocta-2,6-dien-1-yl)-2,4-dihydroxy-6-pentylbenzoic acid] | inhibited increases in interstitial area | inhibited macrophage infiltration | inhibited | 1.88 ± 0.17 | 4.7 ± 0.2 | 21.55 ± 0.60 | recovered | 167 ± 0.7 | suppressed | suppressed | inhibited | inhibited | inhibited tubular dilation | 163 ± 0.9^ mg | inhibited tubule loss | recovered | did not change | 128 ± 8.2** mg | 139 ± 10.8 | 1.162 ± 0.128 | kidney atrophy / loss of UUO kidney weight vs vehicle (UUO mice; UUO mice day 7, 10 mg/kg daily, FIG. 17B, 10 mg/kg): less kidney atrophy; also recorded: ameliorated the loss of kidney weight; recovery of body weight loss vs vehicle (UUO mice; UUO mice, 10 mg/kg daily, FIG. 16): faster recovery of body weight loss; water intake [1]: 2.50 ± 0.50* mL; body weight [1]: 20.85 ± 1.29 g; kidney weight normalized to body weight [1]: No significant difference; magnesium regulation (serum and urine magnesium) vs cisplatin vehicle group [1]: maintained magnesium regulation; kidney function as determined by blood urea nitrogen (BUN) [1]: maintained kidney function; mRNA expression of inflammatory markers (TNF-α, IL-6, Cxcl10, ICAM-1, MCP-1, CRP, ET-1) in kidney ([1]; qRT-PCR, cis(+)-induced increase, FIGS. 31A-31G): significantly reduced; amount of PARP-1 protein in kidney (Western blot) [1]: reduced; IC50 [2]: 270 nM
2 | C=C(C)[C@@H]1CCC(C)=C[C@H]1c1c(O)cc(CCCCC)cc1O [CBD, (1′R,2′R)-5′-methyl-4-penlyl-2′-(prop-1-en-2-yl)-1′,2′,3′,4′-tetrahydro-[1,1′-biphenyl]-2,6-diol] | inhibited interstitial area increase | strongly inhibited macrophage infiltration | inhibited | 2.01 ± 0.44 | 4.9 ± 0.4 | 22.08 ± 0.45 | recovered | 175 ± 0.7 | suppressed | suppressed | inhibit | inhibit | inhibited tubular dilation | 172 ± 0.8^ mg | inhibited tubule loss | didn't affect | did not change | 121 ± 5.0** mg | 132 ± 6.8 | 1.042 ± 0.131 | water intake [1]: 1.79 ± 0.37** mL; body weight [1]: 20.23 ± 0.82* g; kidney weight normalized to body weight [1]: No significant difference; magnesium regulation (serum and urine magnesium) vs cisplatin vehicle group [1]: protected magnesium regulation; kidney function as determined by blood urea nitrogen (BUN) [1]: maintained kidney function; amount of PARP-1 protein in kidney (Western blot) [1]: reduced; IC50 [2]: 2530 nM
